From patent US12036195B2, “Co-crystals of NURR1-lbd in complex with a cyclopentenone prostaglandin and modulators of NURR1” (Nanyang Technological University, priority 2016, dated 2024)

Experiments:
Nurr1 [1] = biological target: T1, Nurr1 (Homo sapiens, UniProt P43354); conditions: high throughput screening of >340,000 compounds; cited from earlier work
Nurr1-LBD [2] = biological target: T2, Nurr1-LBD (Homo sapiens, UniProt P43354); test: 2D 1H-15N HSQC NMR chemical shift perturbation on Nurr1-LBD; assay type: binding; conditions: 15N-labeled Nurr1-LBD, 1:10 molar ratio protein:ligand; residues in helix 11 and 12 perturbed
T2 construct: The human Nurr1-LBD construct coding for residues 328-598 (hNurr1-LBD) was cloned into pETSUMO expression vector; SUMO tag (pETSUMO vector, purified on Ni2+-NTA) (cleaved yes); made in house; host or cells: E. coli BL21 (DE3)
T2 sequence (P43354 328-598): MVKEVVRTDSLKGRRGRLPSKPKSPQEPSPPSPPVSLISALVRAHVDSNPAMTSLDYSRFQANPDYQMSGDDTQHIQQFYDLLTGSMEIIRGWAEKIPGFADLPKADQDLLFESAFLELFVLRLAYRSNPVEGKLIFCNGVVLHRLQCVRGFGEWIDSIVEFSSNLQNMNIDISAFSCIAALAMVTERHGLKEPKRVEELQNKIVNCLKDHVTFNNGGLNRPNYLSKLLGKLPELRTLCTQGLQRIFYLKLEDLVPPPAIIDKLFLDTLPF
Procedure: 0.2 mM uniformly ^15-N labeled Nurr1-LBD protein was prepared in 20 mM sodium phosphate buffer containing 50 mM NaCl, 0.01% NaN3 (pH 7.5) in 90% H2O/10% D2O. The interaction between Nurr1-LBD and PGA1/PGA2 (in DMSO vehicle) was examined using two dimensional HSQC comparing free protein sample with 1:10 molar ratio of Nurr1-LBD:PGA1/PGA2. The backbone resonance and sequence specific resonance assignments were previously assigned for Nurr1-LBD as reported (Kim, et. al. Proc Nat Acad Sci 112, 8756-8761 (2015)). The binding sites of PGA1/PGA2 were mapped on the crystal structure of Nurr1-LBD (PDB code: 1OVL) after determining the chemical shift perturbations following the addition of PGA1/PGA2 against the spectrum of the free protein. Bruker Avance II 700 MHz spectrometer fitted with a 5 mm triple resonance, z-axis-gradient cryoprobe at 298K was used for all NMR experiments. All spectra were processed directly to SPARKY format in UNIX and analyzed using the SPARKY 3.114 program (Goddard and Kneller, SPARKY In, 3.114 Edition: Univ of Calif (2002)).
Prostaglandins are a family of biologically potent lipids from membrane phospholipids; comprised of a C20-unsaturated fatty acid containing a cyclopentenone ring. […]

Nurr1-LBD [3] = biological target: T2, Nurr1-LBD; test: Top-down mass spectrometry of covalent coupling to Nurr1-LBD; assay type: binding; conditions: overnight incubation at 1:1.5 molar ratio
Procedure: Nurr1-LBD at ˜300 μM prepared in 0.1% FA in water was analyzed using a Dionex UltiMate 3000 UHPLC coupled to a linear quadrupole ion trap-Fourier transform Ultra apparatus (LTQ-FT Ultra, Thermo Scientific Inc.). Protein solution (5 μL) was injected directly into the detector carried by 0.1% FA in water at 500 μL/min. On-line ionization was performed using a Michrom CaptiveSpray ion source (Bruker-Michrom Inc., Auburn, USA) at an electrospray potential of 1.5 kV and capillary temperature of 200° C. Data acquisition was conducted in profile and positive mode (600-1600 m/z range). Mass spectrometry (MS) data was acquired for 60 min in the FT-ICR cell at a resolution of 100,000 (at 400 m/z) and maximum injection time of 500 msec using Xcalibur version 2.0 SR2 (Thermo Scientific Inc., Bremen, Germany). The automatic gain control target for FT-ICR was set to 5.0e+05. For each scan 100 microscans were averaged. […]
To exclude the possibility that the covalent coupling of PGA1/PGA2 to human Nurr1-LBD domain seen in the crystal structures was an artifact of crystallization or exposure to high-intensity X-rays, Nurr1-LBD at ˜ 300 μM prepared in 0.1% FA in water was analyzed using a Dionex UltiMate 3000 UHPLC coupled to a linear quadrupole ion trap-Fourier transform Ultra apparatus (LTQ-FT Ultra, Thermo Scientific Inc.). […]

LRRK2 G2019S Drosophila = test: Climbing assay and survival in LRRK2 G2019S Drosophila; assay type: in vivo, Drosophila melanogaster
Procedure: FIG. 4. Mitigation of locomotor deficits and mortality in LRRK2 G2019S Drosophila by CyPGs. Drosophila melanogaster expressing LRRK2 G2019S mutation driven by ddc-Gal4 result in late-onset PD in these flies. Treatment with 50 μM PGA2 was able to improve their climbing ability from 9.7% to 36.4% when compared to age-matched mutant flies (0.5% EtOH drug vehicle). Survival rate was determined by counting the number of flies that survived every 2-3 days for 55 days post-eclosion. Flies were treated with cornmeal-agar medium containing 50 μM PGA2 for 25 days at day 30 post-eclosion and climbing assay was carried out on day 55. The number of flies that climbed beyond a median line in a vertical column (length 25 cm; diameter 1.5 cm) were counted after one minute for an average of six times. Results represent mean±SEM of climbing scores from three independent experiments. Student's t-test (unpaired) was conducted to determine statistical significance between G2019S (vehicle treated) and PGA2-treated mutant flies: *p<0.05.
Flies expressing Leucine-rich repeat kinase 2 (LRRK2) with G2019S mutation driven by dopa decarboxylase (ddc)-Gal4 leads to late-onset PD in these flies (Liu, et al. Proc Natl Acad Sci USA 105, 2693-2698, doi:10.1073/pnas.0708452105 (2008)). […]

HL60 cells = conditions: direct interaction with mitochondria; cited from earlier work
Nurr1 [4] = biological target: T1, Nurr1; conditions: binding with Nurr1-LBD at its non-canonical ligand-binding site; cited from earlier work

T1 sequence (P43354 whole entry, species assumed, the tested form may be a part): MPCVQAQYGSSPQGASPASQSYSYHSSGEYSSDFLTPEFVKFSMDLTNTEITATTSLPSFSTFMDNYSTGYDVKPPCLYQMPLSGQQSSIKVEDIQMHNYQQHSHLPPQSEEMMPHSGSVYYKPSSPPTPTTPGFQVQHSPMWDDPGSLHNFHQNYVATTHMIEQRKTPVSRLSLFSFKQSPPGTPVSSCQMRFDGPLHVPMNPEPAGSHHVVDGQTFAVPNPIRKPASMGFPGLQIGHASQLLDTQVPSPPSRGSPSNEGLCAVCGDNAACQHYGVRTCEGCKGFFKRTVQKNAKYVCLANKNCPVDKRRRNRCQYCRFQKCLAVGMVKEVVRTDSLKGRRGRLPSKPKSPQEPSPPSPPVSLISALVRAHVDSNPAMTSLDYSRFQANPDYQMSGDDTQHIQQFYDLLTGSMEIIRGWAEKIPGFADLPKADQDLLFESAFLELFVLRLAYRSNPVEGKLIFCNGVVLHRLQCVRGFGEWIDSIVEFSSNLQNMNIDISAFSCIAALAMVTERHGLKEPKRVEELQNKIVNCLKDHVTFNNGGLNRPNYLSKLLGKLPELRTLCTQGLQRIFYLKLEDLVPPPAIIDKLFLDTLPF

| Compound | interaction with Nurr1-LBD by chemical shift perturbations (Nurr1-LBD [2]) | fraction of Nurr1 that binds the ligand covalently (Nurr1-LBD [3]) | transcriptional function of Nurr1 (Nurr1 [4]) | further results |
| --- | --- | --- | --- | --- |
| Sc1ncnc2nc[nH]c12 [6-mercaptopurine] | – | – | – | activation of Nurr1 (Nurr1 [1]): activate Nurr1 through a region in the amino terminus lacking a LBD |
| CCCCCC(O)/C=C/[C@H]1C=CC(=O)[C@@H]1CCCCCCC(=O)O (stereo partly shown) [PGA1, prostaglandin A1] | direct physical interaction | about 50% | – | – |
| CCCCCC(O)/C=C/[C@H]1C=CC(=O)[C@@H]1C/C=C\CCCC(=O)O (stereo partly shown) [PGA2, prostaglandin A2] | direct physical interaction | about 50% | – | climbing ability (LRRK2 G2019S Drosophila; 50 μM in medium for 25 days from day 30 post-eclosion, assay on day 55, vehicle-treated mutant flies 9.7%): 36.4%; overall survival rate (LRRK2 G2019S Drosophila; PGA2 treated flies compared to vehicle treated mutant flies, 55 days post-eclosion): improvement to their overall survival rate; apoptosis in HL60 cells (HL60 cells): induce intrinsic apoptosis in HL60 cells |
| CCN(CC)Cc1cc(Nc2ccnc3cc(Cl)ccc23)ccc1O [amodiaquine] | – | – | enhance the transcriptional function of Nurr1 | – |
| CCN(CC)CCCC(C)Nc1ccnc2cc(Cl)ccc12 (stereo not shown) [chloroquine] | – | – | enhance the transcriptional function of Nurr1 | – |
